From publication PMC8952364, “Polyphenols as Inhibitors of Antibiotic Resistant Bacteria—Mechanisms Underlying Rutin Interference with Bacterial Virulence” (Pharmaceuticals, 2022)
Converted amounts (≈) assume the structure as drawn.

What was measured:
[1] = test system: 24 h old P. aeruginosa IBRS P001 biofilms; assay: Biofilm eradication, eDNA assay; type: cell-based, Pseudomonas aeruginosa; conditions: MBC–4 MBC, Figure 5D
Procedure: (§1) The quantity of eDNA was determined as previously described, with some modifications. […] Subsequently, the planktonic cells were removed, and the wells were washed with PBS. TE buffer (Tris-EDTA buffer solution) was added to the wells and content was mixed vigorously by pipetting. The samples were transferred to 1.5 mL tubes and centrifuged at 10,000× g for 10 min. After removal of the supernatant, the pellet was suspended in a TE buffer by vortexing. Absorbance of the supernatant (260 nm) was measured after centrifugation at 10,000× g for 15 min. We calculated the inhibition percentage of eDNA relative to an untreated control. The solvent treated sample was used as the control.
(§2) The bacterial cells were incubated in TSB enriched with 2% glucose in 96-well plates (Sarstedt, Germany) with adhesive bottom at 37 °C for 24 h. After incubation, wells were washed with PBS, and rutin (MBC–4 MBC) in TSB with 2% glucose was added. Incubation continued at 37 °C for another 24 h. The planktonic cells were removed.
(§3) The assays continued as described above for the crystal violet antibiofilm assay for the measurement of biofilm mass, biofilm MTT assay for the interference with cell viability, Congo red binding assay for estimation of exopolysaccharide production, and eDNA assay.

[2] = test system: P. aeruginosa IBRS P001 pyocyanin production; assay: Pyocyanin assay; type: cell-based, Pseudomonas aeruginosa; conditions: 0.25 mg/mL (0.5 MIC), compared to the control
Procedure: Pyocyanin extraction from the culture supernatant was performed using chloroform in a 1:2 ratio [71]. The second extraction of the chloroform phase was done by 0.2 N HCl (3:1 ratio). The pyocyanin concentration was evaluated by recording the absorbance at 520 nm using a Plate Reader Infinite 200 pro (MTX Lab Systems, Vienna, VA, USA). The pyocyanin concentration was calculated by multiplication of the absorbance (A520) by 17.072. A solvent-treated culture supernatant was used as a positive control.

[3] = test system: 24 h old P. aeruginosa IBRS P001 biofilms; assay: Biofilm eradication, crystal violet assay (biofilm mass); type: cell-based, Pseudomonas aeruginosa; conditions: 4 MBC—4 mg/mL, 24 h treatment
Procedure: After incubation, each well was washed twice with sterile PBS (phosphate-buffered saline, pH 7.4) and fixed with methanol for 10 min. After removal of methanol the plate was air-dried. The biofilm was stained with 0.1% crystal violet (Bio-Merieux, Marcy l’Etoile, France) for 30 min. The plate was washed with water, air dried, and the stain was dissolved with 200 μL of 96% ethanol (Zorka, Sabac, Serbia). The absorbance was read at 620 nm on a Multiskan™ FC microplate photometer (Thermo Scientific™, Waltham, MA, USA). The results are presented as biofilm forming capacity (%) compared to control.
as §2, §3

P. aeruginosa IBRS P001 [4] = assay: Bacterial adhesion to HaCaT cells; type: cell-based, Pseudomonas aeruginosa
Procedure: HaCaT cells were grown until confluence in 24-well plates with an adhesive bottom. The medium was removed and DMEM without FBS containing the rutin (MIC and 0.5 MIC) was added. The samples were incubated at 37 °C for 15 min, and bacteria (P. aeruginosa IBRS P001 and MRSA IBRS MRSA 011) were added. After incubation at 37 °C for 1 h, the cells were washed three times with DMEM without FBS and lyzed with 1 mL of 1% (v/v) Tween-20 (SigmaAldrich, Germany) at 37 °C for 30 min. Afterwards, dilutions of the bacterial suspension in each well were made and seeded on Plate Count Agar plates. The number of CFU was determined after incubation at 37 °C for 18 h, and the percentage of adhered bacterial cells was calculated following the equation:% (adhesion relative to the control) = 100 × CFU (treated)/CFU (control)
With CFU (treated) representing the number of CFUs after the treatment of cells with rutin and CFU (control) representing the number of bacterial CFUs in the untreated sample. The solvent treated sample was used as the control.

MRSA IBRS MRSA 011 [5] = type: cell-based, Staphylococcus aureus
Procedure: For the catheter biofilm eradication assay, P. aeruginosa and MRSA were incubated in TSB with 2% glucose with 1 cm long catheters in 24-well plates at 37 °C for 24 h. […] Subsequently, the catheters were washed and treated, as described above.

P. aeruginosa IBRS P001 [6] = assay: Catheter biofilm inhibition model; type: cell-based, Pseudomonas aeruginosa; conditions: MIC and 0.5 MIC of rutin, 24 h
Procedure: (§4) The method was performed as described previously, with some modifications. Sterile silicon 16-mm Romed catheters (Van Oostveen Medical, Wilnis, The Netherlands) were cut into 1 cm lengths and placed in 24-well plates (Sarstedt, Nümbrecht, Germany). P. aeruginosa IBRS P001 and MRSA in TSB with 2% glucose (Torlak, Belgrade, Serbia) and rutin (0.25–1 MIC) were added for the inhibition assay. After incubation (37 °C, 24 h), the catheters were washed with PBS and transferred to 1.5 mL tubes. PBS was added and tubes were vortexed vigorously. The samples were diluted and seeded onto Plate Count Agar (HiMedia Laboratories, Mumbai, India). After being incubated at 37 °C for 24 h, the CFU (colony forming units) count was determined and the inhibition percentage relative to the untreated control was calculated.

[7] = test system: P. aeruginosa IBRS P001 biofilm; assay: Quantification of eDNA (biofilm formation); type: cell-based; conditions: Pseudomonas aeruginosa, IBRSP001BIOFILM; 0.25 MIC, 0.125 mg/mL; read-out: inhibition of eDNA levels
Procedure: as §1

MRSA IBRS MRSA 011 [8] = assay: Catheter biofilm inhibition model; type: cell-based, Staphylococcus aureus; conditions: even in the sub-MIC concentration, 24 h
Procedure: as §4

[9] = test system: multiple drug resistant P. aeruginosa; set-up: method as in doi:10.1016/j.foodcont.2018.02.044; conditions: cited from earlier work
EPS production = test system: EPS production; set-up: method as in doi:10.1016/j.foodcont.2018.02.044; conditions: 200 µg/mL of rutin; cited from earlier work

C[C@@H]1O[C@@H](OC[C@H]2O[C@@H](Oc3c(-c4ccc(O)c(O)c4)oc4cc(O)cc(O)c4c3=O)[C@H](O)[C@@H](O)[C@@H]2O)[C@H](O)[C@H](O)[C@H]1O [Rutin, rutin]
levels of eDNA in the biofilm matrix, in words [1]: significantly reduced | decrease of pyocyanin production [2]: 82.1% | inhibition of pre-formed biofilm biomass [3]: 35% | reduction of CFU adhered to human keratinocytes (P. aeruginosa IBRS P001 [4]; 0.5 MIC, 0.25 mg/mL): 25% | reduction of CFU adhered to human keratinocytes (P. aeruginosa IBRS P001 [4]; rutin MIC): 51% | catheter biofilm eradicated (MRSA IBRS MRSA 011 [5]; 2 MBC, 24 h old biofilm): 74.2% | biofilm cells remained viable after the treatment (MRSA IBRS MRSA 011 [5]; 24 h old catheter biofilm, concentration not printed (MBC-4MBC tested, probably 4 MBC)): 9.6% | biofilm inhibition on catheter (P. aeruginosa IBRS P001 [6]): 100% | number of colonies attached to the urinary catheters (P. aeruginosa IBRS P001 [6]): 0 | inhibition at 125 µg/mL [7]: > 50% | catheter biofilm forming ability, in words (MRSA IBRS MRSA 011 [8]): significantly reduced | MIC [9]: 800 µg/mL (≈ 1310 µM) | inhibition of EPS production (EPS production): more than 40%
